Type in all cases: protein assay
The target of assay [1] is T1, Alpha-1,2-mannosidase (BT_3527) (Bacteroides thetaiotaomicron) (UniProt Q8A1Y1).
T1 sequence (whole entry): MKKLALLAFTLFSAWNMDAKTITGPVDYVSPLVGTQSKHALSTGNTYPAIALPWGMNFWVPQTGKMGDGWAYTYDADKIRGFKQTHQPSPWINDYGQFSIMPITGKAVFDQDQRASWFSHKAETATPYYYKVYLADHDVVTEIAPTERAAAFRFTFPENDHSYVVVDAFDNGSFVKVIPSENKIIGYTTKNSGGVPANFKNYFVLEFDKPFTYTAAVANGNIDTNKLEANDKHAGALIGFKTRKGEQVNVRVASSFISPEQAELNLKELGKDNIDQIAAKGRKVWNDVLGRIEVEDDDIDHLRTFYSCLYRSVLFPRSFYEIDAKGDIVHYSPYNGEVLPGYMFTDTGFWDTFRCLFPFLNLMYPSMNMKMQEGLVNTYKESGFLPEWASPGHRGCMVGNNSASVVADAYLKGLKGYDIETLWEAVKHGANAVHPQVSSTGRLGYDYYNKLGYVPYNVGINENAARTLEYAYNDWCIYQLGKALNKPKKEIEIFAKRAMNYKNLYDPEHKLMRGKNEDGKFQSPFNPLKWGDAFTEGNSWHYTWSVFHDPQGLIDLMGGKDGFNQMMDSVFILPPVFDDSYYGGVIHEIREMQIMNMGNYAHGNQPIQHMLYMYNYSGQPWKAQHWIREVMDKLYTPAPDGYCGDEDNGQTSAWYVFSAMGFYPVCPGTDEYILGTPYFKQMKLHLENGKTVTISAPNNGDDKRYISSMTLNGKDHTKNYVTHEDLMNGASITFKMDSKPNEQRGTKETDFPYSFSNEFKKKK
The assay is described as follows: Activity of Bacteroides thetaiotaomicron GH92 alpha-mannosidase GH92 alpha-mannosidase 3527 assessed as mannose release at 1 mM after 16 hrs by HPLC relative to untreated control after 16 hrs by HPLC.

The target in assay [2] is T2, Alpha-1,2-mannosidase (BT_4092) (Bacteroides thetaiotaomicron) (UniProt Q8A0C9).
T2 sequence (whole entry): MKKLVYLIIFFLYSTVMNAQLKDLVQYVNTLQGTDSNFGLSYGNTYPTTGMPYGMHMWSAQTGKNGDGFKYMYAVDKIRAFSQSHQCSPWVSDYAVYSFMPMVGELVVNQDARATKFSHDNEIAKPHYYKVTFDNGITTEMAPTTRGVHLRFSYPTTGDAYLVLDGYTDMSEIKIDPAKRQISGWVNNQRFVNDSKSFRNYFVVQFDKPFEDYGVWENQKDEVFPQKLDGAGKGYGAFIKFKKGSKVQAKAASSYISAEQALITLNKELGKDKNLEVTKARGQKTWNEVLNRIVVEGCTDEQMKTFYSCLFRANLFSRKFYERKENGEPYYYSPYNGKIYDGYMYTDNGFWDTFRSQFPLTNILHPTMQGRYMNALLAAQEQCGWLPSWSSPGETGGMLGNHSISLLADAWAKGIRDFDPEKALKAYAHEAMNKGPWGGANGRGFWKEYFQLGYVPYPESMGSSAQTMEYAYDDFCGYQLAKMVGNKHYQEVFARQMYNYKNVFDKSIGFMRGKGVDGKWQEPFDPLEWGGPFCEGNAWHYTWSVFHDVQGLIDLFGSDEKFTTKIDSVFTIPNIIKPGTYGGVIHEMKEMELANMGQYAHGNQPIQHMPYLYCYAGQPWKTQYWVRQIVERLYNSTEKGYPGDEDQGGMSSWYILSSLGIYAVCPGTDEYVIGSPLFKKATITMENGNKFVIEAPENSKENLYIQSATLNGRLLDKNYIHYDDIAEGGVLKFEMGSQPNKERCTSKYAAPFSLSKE
The assay is described as follows: Activity of Bacteroides thetaiotaomicron GH92 alpha-mannosidase GH92 alpha-mannosidase 4092 assessed as mannose release at 1 mM after 16 hrs by HPLC relative to untreated control after 16 hrs by HPLC.

Assay [3] addresses T3, Alpha-1,2-mannosidase (BT_3991) (Bacteroides thetaiotaomicron) (UniProt Q8A0N0).
T3 sequence (whole entry): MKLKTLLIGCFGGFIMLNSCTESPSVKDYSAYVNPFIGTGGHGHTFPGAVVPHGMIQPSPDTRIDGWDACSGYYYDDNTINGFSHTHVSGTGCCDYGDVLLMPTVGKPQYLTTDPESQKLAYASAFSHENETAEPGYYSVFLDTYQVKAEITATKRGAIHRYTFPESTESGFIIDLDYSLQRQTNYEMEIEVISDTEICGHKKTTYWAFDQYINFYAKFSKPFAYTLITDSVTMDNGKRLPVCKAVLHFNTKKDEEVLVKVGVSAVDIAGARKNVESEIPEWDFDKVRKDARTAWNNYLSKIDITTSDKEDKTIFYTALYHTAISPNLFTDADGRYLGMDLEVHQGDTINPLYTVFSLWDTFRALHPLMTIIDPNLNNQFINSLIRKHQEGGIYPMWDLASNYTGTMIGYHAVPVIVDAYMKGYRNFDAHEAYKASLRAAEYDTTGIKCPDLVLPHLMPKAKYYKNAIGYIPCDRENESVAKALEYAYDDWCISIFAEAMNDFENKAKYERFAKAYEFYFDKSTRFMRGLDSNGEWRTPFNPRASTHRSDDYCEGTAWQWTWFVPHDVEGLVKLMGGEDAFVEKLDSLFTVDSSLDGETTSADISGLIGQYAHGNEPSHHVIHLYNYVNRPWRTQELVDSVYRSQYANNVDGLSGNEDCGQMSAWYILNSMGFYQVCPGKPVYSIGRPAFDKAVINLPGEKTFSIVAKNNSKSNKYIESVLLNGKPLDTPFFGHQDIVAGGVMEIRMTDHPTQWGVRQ
The assay is described as follows: Activity of Bacteroides thetaiotaomicron GH92 alpha-mannosidase GH92 alpha-mannosidase 3991 assessed as mannose release at 1 mM after 16 hrs by HPLC relative to untreated control after 16 hrs by HPLC.

The source made the active and inactive calls. The rule behind the calls is not given here.

Consider `OC[C@H]1O[C@H](O[C@H]2[C@@H](O)[C@H](O)[C@@H](CO)O[C@@H]2O)[C@@H](O)[C@@H](O)[C@@H]1O`, for which the outcome in assay [1] was inactive. Moreover, the Activity in assay [2] was 100%; in assay [3], 0.8%.
With `OC[C@H]1O[C@H](O[C@H]2[C@H](O)[C@H](O)[C@@H](O)O[C@@H]2CO)[C@@H](O)[C@@H](O)[C@@H]1O`, the result in assay [1] and in assay [3] was inactive. Moreover, in assay [2], the Activity was 0.73%.
As for `OC[C@H]1O[C@H](OC[C@H]2O[C@H](O)[C@@H](O)[C@@H](O)[C@@H]2O)[C@@H](O)[C@@H](O)[C@@H]1O`, the result in assay [1] and in assay [2] was inactive. For the same compound, in assay [3], the Activity amounted to 1.51%.
For `OC[C@H]1O[C@H](O[C@@H]2[C@H](O)[C@@H](O)O[C@H](CO)[C@H]2O)[C@@H](O)[C@@H](O)[C@@H]1O`, in assay [1], the result was inactive. Besides, the Activity in assay [2] worked out at 0.34%.
